The test system of series [1] is vascular smooth muscle cells, T cells, and fibroblasts. The settings on record: wide variety of cells; cited from earlier work.
The test system of series [2] is FGF / specific cell surface receptors. The settings on record: cited from earlier work.
Series [3] relates to smooth muscle cell. Conditions: also certain tumor cells; cited from earlier work.
Series [4] has as its system human fibroblasts. Conditions: in response to bFGF, TGFB and PDGF; cited from earlier work.
Series [5] has as its system myometrial cells. Briefly: Collagen type I and III messenger RNA expression by RNA blotting, myometrial cells. The class given is cell-based.
Series [6] deals with leiomyoma cells. Briefly: Pirfenidone: cell proliferation (tritiated thymidine incorporation, cell number), leiomyoma cells. It counts as cell-based. Conditions: p<0.01. From the text:
(§1) We have also discovered that pirfenidone is a response-blocking compound. Pirfenidone is an antifibrotic agent which is being investigated for use in patients with pulmonary fibrosis. […] Possible cytotoxic effects were examined using lactate dehydrogenase assays and trypan blue exclusion.

The test system of series [7] is leiomyoma cells. Put plainly: Cytotoxicity (lactate dehydrogenase assay, trypan blue exclusion), leiomyoma cells. The class given is cell-based.
Description: as §1
(§2) Additionally, the effect of pirfenidone on cell proliferation and the percentage of dead cells was examined, and the results from the two experiments are shown in FIG. 12.

Series [8] has as its system myometrial cells. Put plainly: Pirfenidone: cell proliferation (tritiated thymidine incorporation, cell number), myometrial cells. The class given is cell-based. The settings on record: p<0.01.
Description: as §1
A general note: Dividing cells build labelled thymidine or BrdU into new DNA.

For series [9], the system named is myometrial cells. Briefly: Cytotoxicity (lactate dehydrogenase assay, trypan blue exclusion), myometrial cells. The class given is cell-based.
Description: as §1, §2

Series [10] concerns leiomyoma cells. Briefly: Collagen type I and III messenger RNA expression by RNA blotting, leiomyoma cells. It counts as cell-based.
The test system of series [11] is cultured human leiomyoma smooth muscle cells. Briefly: DNA synthesis (tritiated thymidine incorporation) in cultured leiomyoma smooth muscle cells. The class given is cell-based. The settings on record: for basal and serum-stimulated DNA synthesis (tritiated thymidine incorporation): interferon 10, 100, 1000 U/ml, 24 hr, serum-free 0.1% BSA or 10% fetal bovine serum. The protocol: (§3) Myometrial and leiomyoma cells from the same patients were used at first passage for proliferation assays. 10,000 cells were plated per well in 96-well plates in medium+10 % serum. Cells were cultured for three days and then placed in serum-free medium for 48 hr to attain quiescence. Interferon-α was tested at the following doses in 10% serum-containing medium; 0, 10, 100 and 1000 U/ml for a period of 24 hr. Tritiated thymidine (luCi/ml) was added to the culture wells for the final 4-6 hr of incubation, the medium removed, cells harvested and counted for thymidine incorporation.
(§4) Effects on basal DNA synthesis were tested using cells cultured in serum-free medium containing only 0.1% BSA while effects on serum-stimulated cells were assessed using cells cultured in medium with 10% fetal bovine serum.
(§5) FIGS. 6c and 6d show the effects of interferon-α on bFGF induced increases in DNA synthesis by uterine myometrial and leiomyoma cells, respectively. Cells were treated with either medium+10% serum of various concentrations of bFGF (0.5 ng/ml, 1.0 ng/ml, 5.0 ng/m. and 10 ng/ml) to compare mitogenic effects. Cells cultured in serum were also treated with interferon-α at 10, 100 and 1000 U/ml, while cells cultured in the various concentrations of bFGF were treated with 100 U/ml of interferon α.

Series [12] relates to cultured human myometrial smooth muscle cells. Briefly: DNA synthesis (tritiated thymidine incorporation) in cultured myometrial smooth muscle cells. The settings on record: for basal and serum-stimulated DNA synthesis (tritiated thymidine incorporation): interferon 10, 100, 1000 U/ml, 24 hr, serum-free 0.1% BSA or 10% fetal bovine serum. The class given is cell-based. The protocol: as §3, §4, §5

The subject of series [13] is endometrial stromal cells. Briefly: DNA synthesis in endometrial stromal cells. It counts as cell-based. The text has this: Interferons blocked both bFGF and serum-stimulated DNA synthesis in these cells. […] The results also show the effects of increasing concentrations of interferon-alpha on serum stimulated DNA synthesis.
The results also show the effects of increasing concentrations of interferon-alpha (10, 100 and 1000 U/ml) on serum (2%) stimulated DNA synthesis.

Series [14] relates to uterine stromal cells. Put plainly: Proliferation of uterine stromal cells (cell counts). The class given is cell-based. The settings on record: only in the presence of progesterone (10 ng/ml bFGF + 100 nm MPA); 7 days. The protocol:
Stromal cells were used at the first passage and were plated into 100 mm dishes (200,000/dish) in serum-containing medium. The following day, cells were rinsed and transferred to serum-free medium containing insulin, transferrin and selenium. Cells remained in this medium for 48 hr to induce quiescence and then received fresh serum-free medium with one of the following treatments: ITS (medium containing only insulin, transferin, and selenium), ITS+10% fetal bovine serum, MPA (ITS+100 nm medroxy progesterone acetate), E2 (ITS+10 nm estradiol 17-beta), bFGF (ITS+10 ng/ml bFGF), bFGF/E2/MPA (ITS+100 nm MPA+10 nm estradiol+10 ng/ml bFGF), bFGF+2% fetal bovine serum (ITS+10 ng/ml bFGF+2% fetal bovine serum), bFGF+MPA (ITS+10 ng/ml bFGF+100 nm MPA) and bFGF+E2 (TS+10 ng/ml bFGF+10 nm estradiol). Cells were treated for a total of 7 days with cell counts performed on days 2, 4 and 7.

The mark [15] stands for this setting: bFGF 0.5-10 ng/ml with 100 U/ml interferon.

For `Cc1ccc(C(=O)Nc2ccc(S(=O)(=O)O)c3cc(S(=O)(=O)O)cc(S(=O)(=O)O)c23)cc1NC(=O)c1cccc(NC(=O)Nc2cccc(C(=O)Nc3cc(C(=O)Nc4ccc(S(=O)(=O)O)c5cc(S(=O)(=O)O)cc(S(=O)(=O)O)c45)ccc3C)c2)c1` [suramin], the FGF induced proliferation result in series [1] is on record as “very potent inhibitor”. In series [2], the “binding of FGF to specific cell surface receptors” value is given as “interfere with the ability of FGFs to bind”.

As for heparin, the “smooth muscle cell proliferation” value in series [3] is recorded as “very good inhibitors”. The “binding of FGF to specific cell surface receptors” value in series [2] is “inhibit FGF binding”.

`Cc1ccc(=O)n(-c2ccccc2)c1` [pirfenidone, 5-methyl-1-phenyl-2-(1H)-pyridone]: the “fibroblast proliferation in vitro” value in series [4] is recorded as “inhibit fibroblast proliferation”. Also, the “levels of RNA for collagen type I” value in series [5] and in [10] was “reduced” in each case. Besides, the “levels of RNA for collagen type III” value in series [5] and in series [10] was “reduced” in each case. Further, the cell proliferation entry in series [6] and in series [8] was “dose dependent inhibition” each time. For the same compound, the “lactate dehydrogenase (LDH) levels” value in series [7] and in series [9] was “No significant effects” throughout. For the same compound, the “cytotoxic effect on the cells” value in [7] (at the doses tested) and in series [9] (at the doses tested) was “no cytotoxic effect” in each case. Besides, the “percentage of dead cells” value is “significant increase” in [7] (only at 1.0 mg/ml, p<0.05) and “significant increase” in series [9] (only at 1.0 mg/ml, p<0.05).

For interferon-α, the “bFGF induced DNA synthesis” value in series [11] (setting [15]) was “inhibitory effect”; in [12] (setting [15]), “abolished the stimulating effect”. The “basal and serum-stimulated DNA synthesis (tritiated thymidine incorporation)” value is “dose-dependent inhibition” in series [11], “tritiated thymidine incorporation decreases” in [11] (listed as interferon alpha), “dose-dependent inhibition” in [12] and “tritiated thymidine incorporation decreases” in series [12] (listed as interferon alpha). The “serum-stimulated DNA synthesis” value in [13] (2% serum, interferon 10, 100, 1000 U/ml) is “blocked”. Also, the “bFGF stimulated DNA synthesis” value in series [13] (bFGF 0.1-5 ng/ml, 100 U/ml interferon) was “blocked”.

As for “bFGF: basic fibroblast growth factor, angiogenic growth factor”, the “proliferation of uterine stromal cells (cell number)” value in series [14] is “stimulates the proliferation”. Besides, in series [12] (bFGF 0.5-10 ng/ml), the “effect of growth factor on DNA synthesis” value is on record as “increase in DNA synthesis”.

These data come from US6440445B1, “Methods and compounds for treatment of abnormal uterine bleeding” (Brigham & Women's Hospital, priority 1996, dated 2002).
